{"source": "ChEMBL document CHEMBL4706557", "about": "“Synthesis and in vitro and in vivo biological evaluation of novel derivatives of flexicaulin A as antiproliferative agents” (Eur J Med Chem, 2020)", "key": {"TE-1": {"test_system": "TE-1", "experiment": "Antiproliferative activity against human TE-1 cells assessed as inhibition of cell growth incubated for 72 hrs by SRB assay", "format": "functional, cell-based", "details": "TE-1, 72 h"}, "MCF7": {"test_system": "MCF7", "experiment": "Antiproliferative activity against human MCF7 cells assessed as inhibition of cell growth incubated for 72 hrs by SRB assay", "format": "functional, cell-based", "details": "MCF7, 72 h"}, "ECa-109 cell line [1]": {"test_system": "ECa-109 cell line", "experiment": "Antiproliferative activity against human EC109 cells assessed as reduction in survival rate after 24 to 72 hrs by SRB assay", "format": "functional, cell-based", "details": "time 24-72 hrs"}, "HUVEC": {"test_system": "HUVEC", "experiment": "Cytotoxicity against HUVEC assessed as reduction in survival rate at 0 to 8 uM by SRB assay", "format": "cell-based", "details": "human, TDE = time-dependent effect, dose 0-8 µM"}, "ECa-109 [2]": {"test_system": "ECa-109", "experiment": "Inhibition of clone formation in human EC109 cells at 0.125 to 0.5 uM after 7 days by crystal violet staining based assay", "format": "functional, cell-based", "details": "dose 0.125-0.5 µM, time 7.0 day"}, "ECa-109 cell line [3]": {"test_system": "ECa-109 cell line", "experiment": "Induction of apoptosis in human EC109 cells assessed as reduction in Bcl-2 protein expression incubated for 24 hrs by Western blot analysis", "format": "functional, cell-based"}, "ECa-109 cell line [4]": {"test_system": "ECa-109 cell line", "experiment": "Induction of apoptosis in human EC109 cells assessed as increase in Bad expression after 24 hrs by Western blot analysis", "format": "functional, cell-based"}, "ECa-109 cell line [5]": {"test_system": "ECa-109 cell line", "experiment": "Induction of apoptosis in human EC109 cells assessed as increase in BimS expression after 24 hrs by Western blot analysis", "format": "functional, cell-based"}, "ECa-109 cell line [6]": {"test_system": "ECa-109 cell line", "experiment": "Induction of apoptosis in human EC109 cells assessed as increase in intracellular ROS level at 1.5 to 3 uM incubated for 24 hrs by DCFH-DA staining based flow cytometry analysis", "format": "functional, cell-based", "details": "dose 1.5-3 µM"}, "ECa-109 [7]": {"test_system": "ECa-109", "experiment": "Inhibition of clone formation in human EC109 cells at 0.5 uM after 7 days in presence of N-acetylcysteine by crystal violet staining based assay", "format": "functional, cell-based", "details": "time 7.0 day"}, "ECa-109 cell line [8]": {"test_system": "ECa-109 cell line", "experiment": "Induction of morphological changes in human EC109 cells assessed as decrease in number of cells", "format": "functional, cell-based"}, "ECa-109 cell line [9]": {"test_system": "ECa-109 cell line", "experiment": "Induction of apoptosis in human EC-109 cells assessed as apoptotic rate at 3 uM preincubated with N-acetylcysteine for 4 hrs followed by compound addition and measured after 24 hrs by Annexin V-FITC/propidium iodide staining based flow cytometry (reference value: 5.7 %)", "format": "functional"}, "ECa-109 cell line [10]": {"test_system": "ECa-109 cell line", "experiment": "Induction of apoptosis in human EC109 cells assessed as change in phosphorylated ASK1 expression at 3 uM incubated for 24 hrs in presence of N-acetylcysteine by Western blot analysis", "format": "functional, cell-based"}, "ECa-109 cell line [11]": {"test_system": "ECa-109 cell line", "experiment": "Induction of apoptosis in human EC109 cells assessed as reduction in Bcl-2 expression at 3 uM incubated for 24 hrs in presence of N-acetylcysteine by Western blot analysis", "format": "functional, cell-based"}, "ECa-109 cell line [12]": {"test_system": "ECa-109 cell line", "experiment": "Induction of apoptosis in human EC109 cells assessed as increase in cleaved caspase 9 expression at 3 uM incubated for 24 hrs in presence of N-acetylcysteine by Western blot analysis", "format": "functional, cell-based"}, "ECa-109 cell line [13]": {"test_system": "ECa-109 cell line", "experiment": "Induction of apoptosis in human EC-109 cells xenografted in nude BALB/c mouse assessed as reduction in number of cells at 20 to 40 mg/kg, ip administered once daily for 14 days by H and E staining based histopathological analysis", "format": "functional, organism-based", "details": "dose 20-40 mg/kg, time 14.0 day"}, "ECa-109 cell line [14]": {"test_system": "ECa-109 cell line", "experiment": "Induction of apoptosis in human EC-109 cells xenografted in nude BALB/c mouse assessed as nuclear shrinkage at 20 to 40 mg/kg, ip administered once daily for 14 days by H and E staining based histopathological analysis", "format": "functional, organism-based", "details": "dose 20-40 mg/kg, time 14.0 day"}, "ECa-109 cell line [15]": {"test_system": "ECa-109 cell line", "experiment": "Induction of apoptosis in human EC-109 cells xenografted in BALB/c mouse assessed as increase in cytochrome C in tumor tissue at 40 mg/kg, ip QD for 14 days by Western blotting analysis relative to control", "format": "functional, organism-based", "details": "time 14.0 day"}, "ECa-109 cell line [16]": {"test_system": "ECa-109 cell line", "experiment": "Induction of apoptosis in human EC-109 cells xenografted in BALB/c mouse assessed as increase in cleaved caspase 9 in tumor tissue at 40 mg/kg, ip QD for 14 days by Western blotting analysis relative to control", "format": "functional, organism-based", "details": "time 14.0 day"}, "[17]": {"experiment": "Toxicity in BALB/c mouse assessed as effect on WBC level at 20 mg/kg, ip administered once daily for 14 days (reference value: 4.42 +/- 0.79 10^9/L)", "format": "organism-based", "details": "in vivo, 336 h, time 14 day"}, "[18]": {"experiment": "Toxicity in BALB/c mouse assessed as effect on WBC level at 40 mg/kg, ip administered once daily for 14 days (reference value: 4.42 +/- 0.79 10^9/L)", "format": "organism-based", "details": "in vivo, 336 h, time 14 day"}, "[19]": {"experiment": "Toxicity in BALB/c mouse assessed as HGB at 20 mg/kg, ip administered once daily for 14 days (reference value: 153.20 +/- 3.87 g/L)", "format": "organism-based", "details": "in vivo, 336 h, time 14 day"}, "[20]": {"experiment": "Toxicity in BALB/c mouse assessed as effect on creatinine content at 20 to 40 mg/kg, ip administered once daily for 14 days", "format": "organism-based", "details": "in vivo, 336 h, dose 20-40 mg/kg, time 14 day"}, "[21]": {"experiment": "Toxicity in BALB/c mouse assessed as effect on uric acid content at 20 to 40 mg/kg, ip administered once daily for 14 days", "format": "organism-based", "details": "in vivo, 336 h, dose 20-40 mg/kg, time 14 day"}, "[22]": {"experiment": "Toxicity in BALB/c mouse assessed as effect on glomeruli in kidney at 20 to 40 mg/kg, ip administered once daily for 14 days by HE staining based assay", "format": "organism-based", "details": "in vivo, 336 h, dose 20-40 mg/kg, time 14 day"}, "[23]": {"experiment": "Toxicity in BALB/c mouse assessed as abnormalities in heart at 20 to 40 mg/kg, ip administered once daily for 14 days by HE staining based assay", "format": "organism-based", "details": "in vivo, 336 h, dose 20-40 mg/kg, time 14 day"}}, "note": "The source made the active and inactive calls. No cut-off for these calls is given here."}
{"smiles": "C=C1C(=O)[C@@]23[C@H](O)C[C@@H]4C(C)(C)CCC[C@@]4(COC(C)=O)[C@@H]2[C@@H](O)C[C@H]1[C@H]3OC(=O)c1ccc(CCl)cc1", "values": [{"measurement": "IC50", "setting": "TE-1", "result": 270, "unit": "nM"}, {"measurement": "IC50", "setting": "MCF7", "result": 350, "unit": "nM"}, {"measurement": "inhibition", "setting": "ECa-109 cell line [1]", "result": "Dose-dependent effect"}, {"measurement": "Activity", "setting": "HUVEC", "result": "Tde"}, {"measurement": "inhibition", "setting": "ECa-109 [2]", "result": "Active"}, {"measurement": "Activity", "setting": "ECa-109 cell line [3]", "result": "Dose-dependent effect"}, {"measurement": "Activity", "setting": "ECa-109 cell line [4]", "result": "Dose-dependent effect"}, {"measurement": "Activity", "setting": "ECa-109 cell line [5]", "result": "Dose-dependent effect"}, {"measurement": "Activity", "setting": "ECa-109 cell line [6]", "result": "Active"}, {"measurement": "inhibition", "setting": "ECa-109 [7]", "result": "inactive"}, {"measurement": "Activity", "setting": "ECa-109 cell line [8]", "result": "Active"}, {"measurement": "Activity", "setting": "ECa-109 cell line [9]", "result": 5.6, "unit": "%"}, {"measurement": "Activity", "setting": "ECa-109 cell line [10]", "result": "inactive"}, {"measurement": "Activity", "setting": "ECa-109 cell line [11]", "result": "inactive"}, {"measurement": "Activity", "setting": "ECa-109 cell line [12]", "result": "inactive"}, {"measurement": "Activity", "setting": "ECa-109 cell line [13]", "result": "Active"}, {"measurement": "Activity", "setting": "ECa-109 cell line [14]", "result": "Active"}, {"measurement": "Activity", "setting": "ECa-109 cell line [15]", "result": "Active"}, {"measurement": "Activity", "setting": "ECa-109 cell line [16]", "result": "Active"}, {"measurement": "Activity", "setting": "[17]", "result": "5.02 10^9/L"}, {"measurement": "Activity", "setting": "[18]", "result": "4.21 10^9/L"}, {"measurement": "Activity", "setting": "[19]", "result": 147, "unit": "g/L"}, {"measurement": "Activity", "setting": "[20]", "result": "Non-Toxic"}, {"measurement": "Activity", "setting": "[21]", "result": "Non-Toxic"}, {"measurement": "Activity", "setting": "[22]", "result": "Non-Toxic"}, {"measurement": "Activity", "setting": "[23]", "result": "Non-Toxic"}]}
